We go through one compound from US20140113904A1, “TREATMENT OF CANCER WITH TOR KINASE INHIBITORS” (SIGNAL PHARMACEUTICALS, LLC, priority 2012, published 2014).

Assay [1] has as its system S6RP(S235/S236). Kind of assay: Phospho-S6RP(S235/S236) in PC3 cell lysates, MSD. The following applies: PC3, 1 hour exposure; read-out: p-S6RP(S235/S236) IC50. In kind it is cell-based, human. The text has this:
(§1) The direct substrate for TORC1 was 4E-BP 1(T46) and indirect downstream substrate was S6RP(S235/S236). The direct substrate for TORC2 was Akt(S473) and indirect downstream substrates measured were GSK3β(S9) and PRAS40(T246). Additionally, the phosphorylation status of Akt(T308), a phosphorylation site for PDK1 was monitored.
MSD® biomarker detection assays provide a rapid and convenient method for measuring the total and phosphorylated levels of protein targets within a single small volume sample. These assays are available in both single-plex and multiplex formats. In a single-plex assay, an antibody for a specific protein target is coated on one electrode (or spot) per well. […] MSD Read Buffer that provides the appropriate chemical environment for ECL is added and the plate is read using an MSD SECTOR™ Imager. […] The instrument measures intensity of the emitted light to afford a quantitative measure of the amount of phosphorylated Akt or S6RP present in the sample. […]
The assay plate was incubated with 150 μL of MSD Blocker A Solution for 1 hour with shaking at room temperature. […] Then 150 μL of 1×MSD Read Buffer T was added to each well. The plate was read on the SECTOR Imager plate reader. The Excel data was transferred to Activity Base and IC50 values were calculated.
All data was analyzed using XLfit from IDBS. […]

Assay [2] relates to PRAS40(T246). The experiment in a line: Phospho-PRAS40(T246) in PC3 cell lysates, Luminex multiplex. In kind it is cell-based, human. The following applies: PC3, 1 hour exposure; read-out: p-PRAS40 (T246) IC50.
Source text: as §1
The multiplex Luminex assay format differs from conventional enzyme-linked immunosorbent assay (ELISA) in that the multiplex capture antibody is attached to a polystyrene bead whereas the ELISA capture antibody is attached to the microplate well. The use of the suspension bead-based technology enables the multiplexing capabilities of the Luminex assays. The xMAP® technology uses 5.6 micron polystyrene microspheres, which are internally dyed with red and infrared fluorophores of differing intensities. Each bead is given a unique number, or bead region, allowing differentiation of one bead from another. Beads covalently bound to different specific antibodies can be mixed in the same assay, utilizing a 96-well microplate format. At the completion of the sandwich immunoassay, beads can be read, using the Luminex 100™ or Luminex 200 detection system, in single-file by dual lasers for classification and quantification of each analyte. […]

Consider `CO[C@H]1CC[C@H](N2C(=O)CNc3ncc(-c4ccc(C(C)(C)O)nc4)nc32)CC1` [Compound 1, 7-(6-(2-hydroxypropan-2-yl)pyridin-3-yl)-1-((1r,4r)-4-methoxycyclohexyl)-3,4-dihydropyrazino-[2,3-b]pyrazin-2(1H)-one], for which the results for the IC50 in assay [1] and in assay [2] were 20 nM and 140 nM, respectively.
